Assay results taken from US20170042849A1, “COMPOSITION FOR BRAIN IMPROVEMENT” (N.V. Nutricia, priority 2014, published 2017).

Legend:
C3H/HeOuJ mice [1] = experiment: T maze spontaneous alternation spatial memory performance test; type: in vivo; details: CMA sensitized mice
Protocol: (§1) Pathogen-free, male C3H/HeOuJ mice (4 weeks old, Charles River Laboratories) mice were bred and raised on a cow's milk protein-free diet (Special Diet Services, Witham, UK) and housed on a 12 h light-dark cycle with access to food and water ad libitum. All animal procedures were conducted in accordance with the guidelines of the Dutch Committee of Animal Experiments. The mice were sensitized orally with 0.5 mL homogenized whey protein (40 mg/mL PBS) and cholera toxin (CT, 20 μg/mL PBS, Quadratech Diagnostics) as an adjuvant; sham-sensitized mice received CT alone. Mice were orally boosted once a week for 5 consecutive weeks. One week after the last sensitization, mice were challenged orally with 0.5 mL whey (100 mg/mL PBS). The mice were fed a control diet, or a diet supplemented with glutamine (5 wt %). At the end, the mice were subjected to social interaction and spatial memory tests. Cow's milk allergy is associated with disturbed social interaction and impaired spatial memory, and thus suited to study the effects of dietary intervention there. […] The percentage of alternation (number of turns in each goal arm) and total trial duration are recorded. This test is used to quantify cognitive deficits in transgenic strains of mice and evaluate novel chemical entities for their effects on cognition. […]

C3H/HeOuJ mice [2] = experiment: Social interaction test in cow's milk allergy model mice and unsensitized mice; type: in vivo
Protocol: as §1, with “By using video tracking software (EthoVision 3.1.16, Noldus), an interaction zone around the cage was digitally determined. Time spent in the interaction zone as well as frequency” for “The percentage”, “entering the interaction zone over the selected time period was measured.” for “alternation (number of turns in each goal arm) and total trial duration are recorded. This test is used to quantify cognitive deficits in transgenic strains of mice and evaluate novel chemical entities for their effects on cognition.”

With `NC(=O)CC[C@H](N)C(=O)O` [glutamine, L-glutamine] the “% Alternation in spatial memory test” value (C3H/HeOuJ mice [1]; diet supplemented with glutamine (5 wt %), mean, s.e.) was 66.7 +/− 6.4 (n = 12) %, the “Reduced alternation in the T-maze test vs control CMA-mice, in words” value (C3H/HeOuJ mice [1]; diet with supplementation of Gln) was “markedly improved” and the “Time spent in interaction zone” value (C3H/HeOuJ mice [2]; CMA sensitized mice, diet supplemented with glutamine (5 wt %), mean +/- s.e.) was 117 +/− 20.8 (n = 12) sec. The “Time spent in the interaction zone” value (C3H/HeOuJ mice [2]; unsensitized mice fed the Gln diet) was 174 ± 19.1 s.
